Each block holds one molecule with its values, some of them ahead of it.
Columns and labels:
Assay type in all cases: binding
[1] = target: T1, lysosomal acid α-glucosidase (rhGAA) (Homo sapiens, UniProt P10253); assay: DSF thermal shift at […], pH […]; settings: read-out: delta_Tm
T1 construct: gene GAA; recombinant human GAA (Myozyme)

[2] = target: T1, lysosomal acid α-glucosidase (rhGAA); assay: DSF thermal shift at […], pH […]; settings: read-out: delta_Tm; remark: listed apart in the source
[3] = target: T1, lysosomal acid α-glucosidase (rhGAA); assay: DSF (SYPRO Orange) titration at pH […] with Kd from cooperative model fit
[4] = target: T1, lysosomal acid α-glucosidase (rhGAA); assay: DSF thermal shift, dose-dependent; rescue of rhGAA activity at pH […]; settings: read-out: delta_Tm

SMILES: OC[C@H]1NC[C@H](O)[C@@H](O)[C@@H]1O [compound 1, DNJ]
ΔTm at 100 µM [1]: 12.1 °C

ΔTm at 10000 µM [2]: 9.6 ± 0.2 °C
SMILES: CC(=O)N[C@@H](CS)C(=O)O [compound 3, N-acetylcysteine]

Kd [3]: 9.16 ± 1.02 mM
SMILES: C[N+](C)(C)C[C@H](O)CC(=O)[O-] [compound 6, L-carnitine]

SMILES: C[N+](C)(C)C[C@@H](O)CC(=O)[O-] [compound 7, D-carnitine]
ΔTm at 5000 µM [4]: 4.9 ± 0.1 °C
